According to patent US9216968B2, “Heterocyclic derivative and pharmaceutical drug” (NIPPON SHINYAKU CO., LTD., priority 2011, dated 2015):
Where a name gives a salt, the structure may show the parent alone.

Key:
human mPGES-1 = human mPGES-1 (Homo sapiens (Human), UniProt O14684); test: mPGES-1 inhibiting activity (microsome fractions, PGE2 by HTRF); assay type: biochemical; details: microsomes from CHO-K1 cells transfected with human mPGES-1; PGH2 1 μM, 4° C., 60 seconds; read-out: mPGES-1 Inhibition IC50
Method in brief: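 PGE2 formation read by HTRF after 60 s at 4 °C with 1 μM PGH2 substrate, following 20 min compound preincubation (1% DMSO) with human mPGES-1 microsomes from transfected CHO-K1 cells. Buffer: potassium phosphate, reduced glutathione, pH 7.4; IC50 from activity relative to enzyme-free blank.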

A549 cells = test: Inhibition of PGE2 production in A549 cell (IL-1β stimulated); assay type: cell-based, human; details: IL-1β 5 ng/well, PGE2 in culture medium
Experimental: Human A549 cells were seeded onto a 96-well plate at 2×10^4 cells/100 μL per well and allowed to incubate overnight. After removing the culture medium and washing with phosphate buffered saline, the culture medium was replaced by RPMI culture medium with 3% FBS containing a DMSO solution containing test compound or DMSO alone (such that DMSO final concentration would be […] in each). After incubation for 60 minutes, IL-1β (5 ng/well) was added and incubated at 37° C. for 24 hours. Then, PGE2 in the culture medium was measured using HTRF kit (Cisbio International, catalogue #62P2APEC), and PGF2α in the culture medium was measured using EIA kit (Cayman Chemical Company, catalogue #516011). The solution free of test compound was used as positive control, and the solution free of test compound and IL-1β was used as negative control. 100% activity was defined as PGE2 and PGF2α production in the positive control minus PGE2 and PGF2α production in the negative control. IC50 value was calculated by standard method.

Chain of human mPGES-1 (O14684 whole entry): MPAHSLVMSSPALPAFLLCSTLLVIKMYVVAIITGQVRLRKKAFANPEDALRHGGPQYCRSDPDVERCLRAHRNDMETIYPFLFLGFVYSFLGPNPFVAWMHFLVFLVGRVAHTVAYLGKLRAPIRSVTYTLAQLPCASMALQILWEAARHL

Compound	IC50 (human mPGES-1) [nM]	IC50 (A549 cells; Homo sapiens, A549, 24 h) [nM]	IC50 (A549 cells; 24 hours, hydrochloride) [nM]
COCc1nc2c(C(=O)NCc3ncccc3C(F)(F)F)cc(NC(=O)c3ccccc3C(F)(F)F)cc2[nH]1 [Example 42, 2-(Methoxymethyl)-6-({[2-(trifluoromethyl)phenyl]carbonyl}amino)-N-{[3-(trifluoromethyl)pyridin-2-yl]methyl}-1H-benzimidazole-4-carboxamide dihydrochloride]	28.5	1860	
Cc1c(Cl)cccc1NC(=O)c1cc(NC(=O)c2ccccc2C(F)(F)F)cc2[nH]c(S(C)(=O)=O)nc12 [Example 180, N-(3-Chloro-2-methylphenyl)-2-(methylsulfonyl)-6-({[2-(trifluoromethyl)phenyl]carbonyl}amino)-1H-benzimidazole-4-carboxamide]	1.1	774	
Cc1c(Cl)cccc1NC(=O)c1cc(NC(=O)c2ccccc2C(F)(F)F)cc2[nH]c(NCC(C)(C)O)nc12 [Example 167, N-(3-Chloro-2-methylphenyl)-2-[(2-hydroxy-2-methylpropyl)amino]-6-({[2-(trifluoromethyl)phenyl]carbonyl}amino)-1H-benz imidazole-4-carboxamide hydrochloride]	1	217	
Cc1nc2c(C(=O)Nc3cccc(Cl)c3C)cc(NC(=O)c3ccccc3C(F)(F)F)cc2[nH]1 [Example 14, N-(3-Chloro-2-methylphenyl)-2-methyl-6-({[2-(trifluoromethyl)phenyl]carbonyl}amino)-1H-benzimidazole-4-carboxamide hydrochloride]	3.8	15.2	
COCCCc1ccc(Cl)c(C(=O)Nc2cc(C(=O)Nc3cccc(Cl)c3C)c3nc(COC)[nH]c3c2)c1 [Example 116, 6-({[2-Chloro-5-(3-methoxypropyl)phenyl]carbonyl}amino)-N-(3-chloro-2-methylphenyl)-2-(methoxymethyl)-1H-benzimidazole-4-carboxamide hydrochloride]	9.7	252	
Cc1c(Cl)cccc1NC(=O)c1cc(NC(=O)c2ccccc2C(F)(F)F)cc2[nH]c(NCCO)nc12 [Example 137, N-(3-Chloro-2-methylphenyl)-2-[(2-hydroxyethyl)amino]-6-({[2-(trifluoromethyl)phenyl]carbonyl}amino)-1H-benzimidazole-4-carboxamide hydrochloride]	3.3	1110	
COCc1nc2c(C(=O)Nc3cccc(Cl)c3C)cc(NC(=O)c3c(F)cccc3Br)cc2[nH]1 [Example 103, 6-{[(2-Bromo-6-fluorophenyl)carbonyl]amino}-N-(3-chloro-2-methylphenyl)-2-(methoxymethyl)-1H-benzimidazole-4-carboxamide hydrochloride]	2.8	59.6	
Cc1c(Cl)cccc1NC(=O)c1cc(NC(=O)c2ccccc2C(F)(F)F)cc2[nH]c(NCCOC(C)C)nc12 [Example 175, N-(3-Chloro-2-methylphenyl)-2-{[2-(propan-2-yloxy)ethyl]amino}-6-({[2-(trifluoromethyl)phenyl]carbonyl}amino)-1H-benzimidazole-4-carboxamide hydrochloride]	3.6	144	
Cc1c(Cl)cccc1NC(=O)c1cc(NC(=O)c2cc(C#CC3CC3)ccc2Cl)cc2[nH]c(N(C)C)nc12 [Example 188, 6-({[2-Chloro-5-(cyclopropylethynyl)phenyl]carbonyl}amino)-N-(3-chloro-2-methylphenyl)-2-(dimethylamino)-1H-benzimidazole-4-carboxamide hydrochloride]	457	1020	
Cc1c(Cl)cccc1NC(=O)c1cc(NC(=O)c2cc(Cl)ccc2Cl)cc2[nH]c(NCCOC(C)C)nc12 [Example 193, N-(3-Chloro-2-methylphenyl)-6-{[(2,5-dichlorophenyl)carbonyl]amino}-2-{[2-(propan-2-yloxy)ethyl]amino}-1H-benzimidazole-4-carboxamide hydrochloride]	0.4	18.9	
Cc1c(Cl)cccc1NC(=O)c1cc(NC(=O)c2ccccc2C(F)(F)F)cc2[nH]c(NCCN3CCOCC3)nc12 [Example 146, N-(3-Chloro-2-methylphenyl)-2-{[2-(morpholin-4-yl)ethyl]amino}-6-({[2-(trifluoromethyl)phenyl]carbonyl}amino)-1H-benzimidazole-4-carboxamide hydrochloride]	3.1	129	
COCCc1nc2c(C(=O)Nc3cccc(Cl)c3C)cc(NC(=O)c3ccccc3C(F)(F)F)cc2[nH]1 [Example 81, N-(3-Chloro-2-methylphenyl)-2-(2-methoxyethyl)-6-({[2-(trifluoromethyl)phenyl]carbonyl}amino)-1H-benzimidazole-4-carboxamide hydrochloride]	5	404	
Cc1c(Cl)cccc1NC(=O)c1cc(NC(=O)c2c(F)cccc2Cl)cc2[nH]c(NCCOC(C)C)nc12 [Example 194, 6-{[(2-Chloro-6-fluorophenyl)carbonyl]amino}-N-(3-chloro-2-methylphenyl)-2-{[2-(propan-2-yloxy)ethyl]amino}-1H-benzimidazole-4-carboxamide hydrochloride]	0.4	33.8	
CSc1nc2c(C(=O)Nc3cccc(Cl)c3C)cc(NC(=O)c3ccccc3C(F)(F)F)cc2[nH]1 [Example 179, N-(3-Chloro-2-methylphenyl)-2-(methylsulfanyl)-6-({[2-(trifluoromethyl)phenyl]carbonyl}amino)-1H-benzimidazole-4-carboxamide]	3.6	20.2	
Cc1c(Cl)cccc1NC(=O)c1cc(NC(=O)c2ccccc2C(F)(F)F)cc2[nH]c(N3CC[C@H](N(C)C)C3)nc12 [Example 149, N-(3-Chloro-2-methylphenyl)-2-[(3S)-3-(dimethylamino)pyrrolidin-1-yl]-6-({[2-(trifluoromethyl)phenyl]carbonyl}amino)-1H-benzimidazole-4-carboxamide dihydrochloride]	1	43.3	
COCc1nc2c(C(=O)Nc3cccc(Cl)c3C)cc(NC(=O)c3cc(C(F)(F)F)ccc3C(F)(F)F)cc2[nH]1 [Example 110, 6-({[2,5-Bis(trifluoromethyl)phenyl]carbonyl}amino)-N-(3-chloro-2-methylphenyl)-2-(methoxymethyl)-1H-benzimidazole-4-carboxamide hydrochloride]	2.6	35.5	
Cc1c(Cl)cccc1NC(=O)c1cc(NC(=O)c2ccccc2C(F)(F)F)cc2[nH]c(NCC(=O)OC(C)(C)C)nc12 [Example 160, tert-Butyl N-{4-[(3-chloro-2-methylphenyl)carbamoyl]-6-({[2-(trifluoromethyl)phenyl]carbonyl}amino)-1H-benzimidazol-2-yl}glycinate hydrochloride]	7.6	71.6	
CCN(CC)CCNc1nc2c(C(=O)Nc3cccc(Cl)c3C)cc(NC(=O)c3ccccc3C(F)(F)F)cc2[nH]1 [Example 151, N-(3-Chloro-2-methylphenyl)-2-{[2-(diethylamino)ethyl]amino}-6-({[2-(trifluoromethyl)phenyl]carbonyl}amino)-1H-benzimidazole-4-carboxamide hydrochloride]	11.6	328	
Cc1c(Cl)cccc1NC(=O)c1cc(NC(=O)c2ccccc2C(F)(F)F)cc2[nH]c(NCC(C)(C)CN(C)C)nc12 [Example 154, N-(3-Chloro-2-methylphenyl)-2-{[3-(dimethylamino)-2,2-dimethylpropyl]amino}-6-({[2-(trifluoromethyl)phenyl]carbonyl}amino)-1H-benzimidazole-4-carboxamide hydrochloride]	20	64.4	
O=C(Nc1cc(C(=O)NCc2ccccc2C(F)(F)F)c2nc(C3CCCO3)[nH]c2c1)c1ccccc1C(F)(F)F (stereo in doubt) [Example 67, 2-[(2S)-Tetrahydrofuran-2-yl]-N-[2-(trifluoromethyl)benzyl]-6-({[2-(trifluoromethyl)phenyl]carbonyl}amino)-1H-benzimidazole-4-carboxamide hydrochloride]	11		56.4
Cc1c(Cl)cccc1NC(=O)c1cc(NC(=O)c2cc(Cl)ccc2Cl)cc2[nH]c([C@H]3CCCO3)nc12 [Example 129, N-(3-Chloro-2-methylphenyl)-6-{[(2,5-dichlorophenyl)carbonyl]amino}-2-[(2R)-tetrahydrofuran-2-yl]-1H-benzimidazole-4-carboxamide hydrochloride]	59.4	178	
O=C(Nc1cc(C(=O)NC2CCCCC2)c2nc[nH]c2c1)c1ccccc1C(F)(F)F [Example 2, N-Cyclohexyl-6-({[2-(trifluoromethyl)phenyl]carbonyl}amino)-1H-benzimidazole-4-carboxamide]	7.6	240	
COCc1nc2c(C(=O)Nc3ccc(C(F)(F)F)cc3)cc(NC(=O)c3ccccc3C(F)(F)F)cc2[nH]1 [Example 28, 2-(Methoxymethyl)-N-[4-(trifluoromethyl)phenyl]-6-({[2-(trifluoromethyl)phenyl]carbonyl}amino)-1H-benzimidazole-4-carboxamide hydrochloride]	3.3	114	
